These results are taken from ChEMBL document CHEMBL5325400 (Eur J Med Chem, 2023).

Molecules are shown by their SMILES. pIC50: −log10 of the molar value. Activity calls are given as the source filed them. No cut-off for these calls is given here.

One data set concerns SK-OV-3. Briefly: Antiproliferative activity against human SK-OV-3 cells assessed as inhibition of cell growth measured after 48 hrs by MTT assay. It is filed as functional, cell-based. The following applies: SK-OV-3, 48 h.
For data set [1], the system named is A549. Briefly: Inhibition of colony formation in human A549 cells incubated for 6 days by crystal violet staining based analysis. The class given is functional, cell-based. The following applies: dose 1-20 nM, time 6.0 day.
Data set [2] concerns A549. In words: Inhibition of colony formation in human A549 cells at 20 nM incubated for 6 days by crystal violet staining based analysis. It is filed as functional, cell-based. The following applies: time 6.0 day.
Data set [3] relates to A549. Briefly: Induction of cell cycle arrest in human A549 cells assessed as accumulation at S phase at 40 nM incubated for 24 hrs by PI staining based flow cytometry (Rvb= 20.94%). It is filed as functional.
In data set [4] the test system is A549. In words: Induction of apoptosis in human A549 cells assessed as viable cells at 10 nM incubated for 24 hrs by annexin V-FITC/propidium iodide staining based flow cytometry analysis (reference value: 96.44%). The following applies: read-out: Activity. The class given is functional.
Data set [5] relates to A549. In words: Induction of apoptosis in human A549 cells assessed as early apoptotic cells at 10 nM incubated for 24 hrs by annexin V-FITC/propidium iodide staining based flow cytometry analysis (reference value: 0.84%). The class given is functional.
For data set [6], the system named is A549. In words: Induction of apoptosis in human A549 cells assessed as late apoptotic cells at 20 nM incubated for 24 hrs by annexin V-FITC/propidium iodide staining based flow cytometry analysis (reference value: 0.37%). It is filed as functional.
For data set [7], the system named is A549. In words: Induction of apoptosis in human A549 cells assessed as necrotic cells at 10 nM incubated for 24 hrs by annexin V-FITC/propidium iodide staining based flow cytometry analysis (reference value: 2.36%). It is filed as functional.
For data set [8], the system named is A549. In words: Inhibition of cell migration in human A549 cells assessed as total number of cells migrated at 10 nM incubated for 12 hrs by crystal violet staining based transwell assay (reference value: 724 +/- 16). It is filed as functional.
The test system of a further data set is B16-F10. In words: Inhibition of cell migration in mouse B16-F10 cells assessed as total number of cells migrated at 40 nM incubated for 12 hrs by crystal violet staining based transwell assay (reference value: 692 +/- 11). It is filed as functional.
Data set [9] can be described thus: Toxicity in BALB/c mouse assessed as change in body weight at 10 mg/kg, ip. The class given is organism-based. The following applies: in vivo.
Data set [10] concerns A549. Briefly: Antitumor activity against human A549 cells xenografted in BALB/c mouse assessed as tumor volume at 5 mg/kg, ip administered every other day for 25 days. It is filed as functional. The following applies: time 25 day.
Data set [11] in a line: Toxicity in BALB/c mouse xenografted with human A549 cells assessed as change in body weight at 5 mg/kg, ip administered every other day for 25 days. The class given is organism-based. The following applies: in vivo, 600 h, time 25 day.
Data set [12] has as its system A549. Briefly: Antitumor activity against human A549 cells xenografted in BALB/c mouse assessed as downregulation of Bcl-2 expression in tumor at 10 mg/kg, ip administered every other day for 25 days by Western blotting analysis. It is filed as functional, organism-based. The following applies: time 25.0 day.
Data set [13] deals with A549. In words: Antitumor activity against human A549 cells xenografted in BALB/c mouse assessed as downregulation of Bcl-2 expression in tumor at 5 mg/kg, ip administered every other day for 25 days by Western blotting analysis. The following applies: time 25.0 day. It is filed as functional, organism-based.
Data set [14] is described as follows: Toxicity in BALB/c nude mouse xenografted with human A549 cells assessed as pathological changes in lung at 5 to 10 mg/kg, ip administered every other day for 25 days by hematoxylin and eosin staining based microscopic analysis. It is filed as organism-based. The following applies: in vivo, 600 h, dose 5-10 mg/kg, time 25 day.
Data set [15] deals with A549. In words: Residual cell migration in human A549 cells at 5 nM incubated for 12 hrs by crystal violet staining based transwell assay. The following applies: A549, 12 h.
Data set [16] concerns A549. In words: Residual cell migration in human A549 cells at 20 nM incubated for 12 hrs by crystal violet staining based transwell assay. The following applies: A549, 12 h.

With `COc1cccc(Nc2cc(Nc3cccc(NC(=O)C4CC4)c3)ncn2)c1`, the negative-log IC50 (pIC50) with SK-OV-3 was 8.82. In the data set with A549 [1], the inhibition result is “Dose-Dependent Effect”. Further, in the data set with A549 [2], the inhibition result is “Active”. In addition, the Activity was found to be 15.31% with A549 [3]; 1.5% in the data set with A549 [5]; 16.31% with A549 [6]; 6.5% in the data set with A549 [7]; 486 with A549 [8]; 221 with B16-F10. Besides, the Activity entry is listed as “Non-Toxic” in data set [9], 42.51% in the data set on A549 [10], “Non-Toxic” in data set [11] and “Non-Toxic” in [14]. In addition, in the data set with A549 [4], the viability at 0.01 µM was found to be 82.2%. Also, the result in the data set with A549 [12] and in the data set with A549 [13] was Active. The molecule further returned a level, % of control at 0.005 µM in the data set with A549 [15] of 91.5%. Besides, the level, % of control at 0.02 µM with A549 [16] came to 56.3%.
